Calls of active or inactive are those of the source. No cut-off for these calls is given here.
Tests used:
MCF7 [1] = assay: Induction of DNA damage in human MCF7 cells assessed as increase in gamma H2AX level measured at 4 uM after 24 hrs by Western blot analysis; assay type: functional, cell-based
MCF7 [2] = assay: Cytotoxicity against human MCF7 cells assessed as cell viability after 48 hrs by MTT assay; assay type: functional, cell-based; details: MCF7, 48 h
SW116 = assay: Induction of senescence in human SW116 cells assessed as increase in p21 expression at 4 uM after 24 hrs by Western blot analysis; assay type: functional, cell-based
[3] = target: Telomerase reverse transcriptase (Homo sapiens) (UniProt O14746); assay: Inhibition of telomerase activity in human A549 cells at 4 uM after 24 hrs by TRAP eze XL telomerase assay
MDA-MB-231 [4] = assay: Induction of senescence in human MDA-MB-231 cells expressing mutant p53 at 4 uM after 24 hrs by Western blot analysis; assay type: functional, cell-based
MCF7 [5] = assay: Cytotoxicity against human MCF7 cells assessed as cell viability at 2 uM after 48 hrs by MTT assay; assay type: functional
MDA-MB-231 [6] = assay: Cytotoxicity against human MDA-MB-231 cells assessed as cell viability after 48 hrs by MTT assay; assay type: functional, cell-based; details: MDA-MB-231, 48 h
MCF7 [7] = assay: Induction of senescence in human MCF7 cells assessed as decrease in SKP2 expression at 4 uM after 24 hrs by Western blot analysis; assay type: functional, cell-based
MCF7 [8] = assay: Induction of senescence in human MCF7 cells expressing wild type p53 at 4 uM after 24 hrs by Western blot analysis; assay type: functional, cell-based
MCF7 [9] = assay: Induction of senescence in human MCF7 cells assessed as increase in p21 expression at 4 uM after 24 hrs by Western blot analysis; assay type: functional, cell-based
MCF7 [10] = assay: Cell cycle arrest in human MCF7 cells assessed as accumulation at S phase at 4 uM after 24 hrs using propidium iodide staining by FACS analysis (reference value: 11%); assay type: functional
COLO 205 = assay: Cytotoxicity against human COLO205 cells assessed as cell viability after 48 hrs by MTT assay; assay type: functional, cell-based; details: COLO 205, 48 h
MCF7 (Homo sapiens) = assay: Induction of senescence in human MCF7 cells assessed as increase in p16 expression at 4 uM after 24 hrs by Western blot analysis
[11] = Cytotoxicity against human MIAPaCa2 cells assessed as cell viability after 48 hrs by MTT assay; assay type: functional, cell-based; details: MIA PaCa-2, 48 h
HCT-116 [12] = assay: Induction of senescence in human HCT116 cells assessed as increase in p21 expression at 4 uM after 24 hrs by Western blot analysis; assay type: functional, cell-based
MCF7 [13] = assay: Cell cycle arrest in human MCF7 cells assessed as accumulation at G1 phase at 4 uM after 24 hrs using propidium iodide staining by FACS analysis (reference value: 70%); assay type: functional
A549 = assay: Cytotoxicity against human A549 cells assessed as cell viability after 48 hrs by MTT assay; assay type: functional, cell-based; details: A549, 48 h
[14] = target: Telomerase reverse transcriptase (Homo sapiens) (UniProt O14746); assay: Inhibition of telomerase activity in human MCF7 cells assessed as un-repairable DNA damage at 4 uM after 24 hrs; assay type: cell-based
MCF7 [15] = assay: Cell cycle arrest in human MCF7 cells assessed as accumulation at G2/M phase at 4 uM after 24 hrs using propidium iodide staining by FACS analysis (reference value: 19%); assay type: functional
MCF7 [16] = assay: Induction of DNA damage in human MCF7 cells assessed as decrease in TRF2 level measured at 4 uM after 24 hrs by Western blot analysis; assay type: functional, cell-based
MCF7 [17] = assay: Cytotoxicity against human MCF7 cells assessed as cell viability at 4 uM after 48 hrs by MTT assay; assay type: functional
MCF7 [18] = assay: Induction of senescence in human MCF7 cells assessed as increase in p53 expression at 4 uM after 24 hrs by Western blot analysis; assay type: functional, cell-based
MCF7 [19] = assay: Induction of senescence in human MCF7 cells assessed as blue colotation and adopted a flattened morphology with spread out cytoplasm at 4 uM after 72 hrs by SA-beta-gal assay; assay type: functional, cell-based
MCF7 [20] = assay: Induction of DNA damage in human MCF7 cells assessed as increase in POT1 level measured at 4 uM after 24 hrs by Western blot analysis; assay type: functional, cell-based
MCF7 [21] = assay: Induction of DNA damage in human MCF7 cells assessed as increase in TRF1 level measured at 4 uM after 24 hrs by Western blot analysis; assay type: functional, cell-based
MCF7 [22] = assay: Induction of senescence in human MCF7 cells assessed as increase in p16 expression at 4 uM after 24 hrs by Western blot analysis; assay type: functional, cell-based
[23] = Cytotoxicity against human MCF10A cells assessed as cell viability after 48 hrs by MTT assay; assay type: cell-based; details: MCF-10A
HCT-116 [24] = assay: Induction of senescence in human HCT116 cells assessed as increase in p16 expression at 4 uM after 24 hrs by Western blot analysis; assay type: functional, cell-based

Telomerase reverse transcriptase (Homo sapiens), sequence (O14746 whole entry): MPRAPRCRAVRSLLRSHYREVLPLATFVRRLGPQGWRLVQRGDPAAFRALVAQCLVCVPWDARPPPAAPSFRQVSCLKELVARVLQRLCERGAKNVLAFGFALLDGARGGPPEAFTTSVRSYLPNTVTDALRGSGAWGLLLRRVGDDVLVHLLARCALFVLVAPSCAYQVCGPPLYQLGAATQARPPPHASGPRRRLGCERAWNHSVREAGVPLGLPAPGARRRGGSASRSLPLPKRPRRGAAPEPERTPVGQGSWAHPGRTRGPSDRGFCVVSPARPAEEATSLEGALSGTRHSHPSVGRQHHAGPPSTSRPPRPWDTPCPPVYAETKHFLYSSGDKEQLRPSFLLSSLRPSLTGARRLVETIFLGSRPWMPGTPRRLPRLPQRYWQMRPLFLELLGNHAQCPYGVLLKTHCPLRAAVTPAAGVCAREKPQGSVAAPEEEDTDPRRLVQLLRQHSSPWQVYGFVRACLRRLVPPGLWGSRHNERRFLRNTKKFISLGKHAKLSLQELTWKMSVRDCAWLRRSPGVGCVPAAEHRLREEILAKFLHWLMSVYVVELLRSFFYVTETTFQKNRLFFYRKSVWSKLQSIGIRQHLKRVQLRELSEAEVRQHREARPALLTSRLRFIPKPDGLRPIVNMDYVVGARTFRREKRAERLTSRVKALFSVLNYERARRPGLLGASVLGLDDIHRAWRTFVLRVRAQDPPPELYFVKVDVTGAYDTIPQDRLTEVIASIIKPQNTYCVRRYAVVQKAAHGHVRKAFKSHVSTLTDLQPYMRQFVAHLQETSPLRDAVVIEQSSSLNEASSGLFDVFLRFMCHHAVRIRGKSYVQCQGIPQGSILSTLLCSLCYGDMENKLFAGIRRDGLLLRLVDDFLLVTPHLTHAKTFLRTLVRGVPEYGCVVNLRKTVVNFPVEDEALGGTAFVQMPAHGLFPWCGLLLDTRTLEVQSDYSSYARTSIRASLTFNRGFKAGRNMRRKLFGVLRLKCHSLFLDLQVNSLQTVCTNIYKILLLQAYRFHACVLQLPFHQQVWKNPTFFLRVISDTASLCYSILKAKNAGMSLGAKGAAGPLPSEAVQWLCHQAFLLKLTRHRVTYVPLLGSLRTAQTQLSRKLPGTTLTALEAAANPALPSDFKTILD

## Cc1cc(C#Cc2ccc(C(C)(C)C)cc2)ccc1-n1c(/C=C/c2c(Cl)cccc2Cl)nc2ccccc2c1=O
MCF7 [1]
  Activity: Active
MCF7 [2]
  IC50: 2.27 µM
SW116
  Activity: Active
[3]
  inhibition: Active
MDA-MB-231 [4]
  Activity: inactive
MCF7 [5]
  OD: 0.77
MDA-MB-231 [6]
  IC50: 5.44 µM
MCF7 [7]
  inhibition: Active
MCF7 [8]
  Activity: Active
MCF7 [9]
  Activity: Active
MCF7 [10]
  Activity: 2%
COLO 205
  IC50: 4.85 µM
MCF7 (Homo sapiens)
  Activity: Active
[11]
  IC50: 5.29 µM
HCT-116 [12]
  Activity: Active
MCF7 [13]
  Activity: 93%
A549
  IC50: 5.6 µM
[14]
  inhibition: Active
MCF7 [15]
  Activity: 5%
MCF7 [16]
  inhibition: Active
MCF7 [17]
  OD: 0.39
MCF7 [18]
  Activity: Active
MCF7 [19]
  Activity: Active
MCF7 [20]
  Activity: Active
MCF7 [21]
  Activity: Active
MCF7 [22]
  Activity: Active
[23]
  IC50: 15 µM
HCT-116 [24]
  Activity: Active

## Cc1cc(C#Cc2ccc(C(C)(C)C)cc2)ccc1-n1c(/C=C/c2ccnc3ccccc23)nc2ccccc2c1=O
MCF7 [1]
  Activity: Active
MCF7 [2]
  IC50: 2.45 µM
SW116
  Activity: Active
[3]
  inhibition: Active
MDA-MB-231 [4]
  Activity: inactive
MCF7 [5]
  OD: 0.59
MDA-MB-231 [6]
  IC50: 5.44 µM
MCF7 [7]
  inhibition: Active
MCF7 [8]
  Activity: Active
MCF7 [9]
  Activity: Active
MCF7 [10]
  Activity: 2%
COLO 205
  IC50: 5.44 µM
MCF7 (Homo sapiens)
  Activity: Active
[11]
  IC50: 5.21 µM
HCT-116 [12]
  Activity: Active
MCF7 [13]
  Activity: 94%
A549
  IC50: 5.87 µM
[14]
  inhibition: Active
MCF7 [15]
  Activity: 4%
MCF7 [16]
  inhibition: Active
MCF7 [17]
  OD: 0.24
MCF7 [18]
  Activity: Active
MCF7 [19]
  Activity: Active
MCF7 [20]
  Activity: Active
MCF7 [21]
  Activity: Active
MCF7 [22]
  Activity: Active
[23]
  IC50: 28 µM
HCT-116 [24]
  Activity: Active

Reference: ChEMBL document CHEMBL3217459, “3-Diarylethyne quinazolinones: a new class of senescence inducers” (Medchemcomm, 2013)
